Experimental data reported in patent US9963445B2, “Chemical compounds” (SYNGENTA PARTICIPATIONS AG, priority 2013, dated 2018).

Legend:
Format in all cases: in vivo
Abutilon theophrasti [1] = test: Pre-emergence herbicidal activity, glasshouse pot test; conditions: pre-emergence spray, rate 1000 g/ha, evaluated after 13 days, scale 0-5
In short: (§1)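 Test species were sown in pots and, after one day under controlled glasshouse conditions, treated with an aqueous spray of the active ingredient in acetone/water containing 0.5% Tween 20. Evaluation followed 13 days later, scoring plant damage from 0 (none) to 5 (total).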

Alopecurus myosuroides [2] = test: as above; conditions: pre-emergence spray, rate 1000 g/ha, evaluated after 13 days, scale 0-5
In short: as §1

Amaranthus retroflexus [3] = test: as above; conditions: pre-emergence spray, rate 1000 g/ha, evaluated after 13 days, scale 0-5
In short: as §1

Echinochloa crus-galli [4] = test: as above; conditions: pre-emergence spray, rate 1000 g/ha, evaluated after 13 days, scale 0-5
In short: as §1

Setaria faberi [5] = test: as above; conditions: pre-emergence spray, rate 1000 g/ha, evaluated after 13 days, scale 0-5
In short: as §1

zea mays [6] = test: as above; conditions: pre-emergence spray, rate 1000 g/ha, evaluated after 13 days, scale 0-5
In short: as §1

Abutilon theophrasti [7] = test: Post-emergence herbicidal activity, glasshouse pot test; set-up: key: 0 = no damage to plant, 5 = total damage to plant; conditions: Application post-emergence, rate 1000 g/ha, evaluated after 13 days
In short: (§2)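 Pot-grown seedlings, sown in standard soil, were sprayed 8 days after sowing and kept in a controlled glasshouse (24/16 °C, 14 h photoperiod, 65% humidity). Injury was assessed visually 13 days later on a scale where 5 means total damage.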

Alopecurus myosuroides [8] = test: as above; set-up: key: 0 = no damage to plant, 5 = total damage to plant; conditions: Application post-emergence, rate 1000 g/ha, evaluated after 13 days
In short: as §2

Amaranthus retroflexus [9] = test: as above; set-up: key: 0 = no damage to plant, 5 = total damage to plant; conditions: Application post-emergence, rate 1000 g/ha, evaluated after 13 days
In short: as §2

Echinochloa crus-galli [10] = test: as above; set-up: key: 0 = no damage to plant, 5 = total damage to plant; conditions: Application post-emergence, rate 1000 g/ha, evaluated after 13 days
In short: as §2

Setaria faberi [11] = test: as above; set-up: key: 0 = no damage to plant, 5 = total damage to plant; conditions: Application post-emergence, rate 1000 g/ha, evaluated after 13 days
In short: as §2

zea mays [12] = test: as above; set-up: key: 0 = no damage to plant, 5 = total damage to plant; conditions: Application post-emergence, rate 1000 g/ha, evaluated after 13 days
In short: as §2

| Compound | ABUTH damage score, application pre-emergence (Abutilon theophrasti [1]) | ALOMY damage score, application pre-emergence (Alopecurus myosuroides [2]) | AMARE damage score, application pre-emergence (Amaranthus retroflexus [3]) | ECHCG damage score, application pre-emergence (Echinochloa crus-galli [4]) | SETFA damage score, application pre-emergence (Setaria faberi [5]) | ZEAMX damage score, application pre-emergence (zea mays [6]) | ABUTH herbicidal damage score (Abutilon theophrasti [7]) | ALOMY herbicidal damage score (Alopecurus myosuroides [8]) | AMARE herbicidal damage score (Amaranthus retroflexus [9]) | ECHCG herbicidal damage score (Echinochloa crus-galli [10]) | SETFA herbicidal damage score (Setaria faberi [11]) | ZEAMX herbicidal damage score (zea mays [12]) |
| --- | --- | --- | --- | --- | --- | --- | --- | --- | --- | --- | --- | --- |
| CCc1cc(N2C(=O)C(Cl)=C(C)C2O)ncc1Br (stereo not drawn) [AF99] | 0 | 2 | 2 | 2 | 1 | 1 | 5 | 5 | 5 | 5 | 4 | 1 |
| CC1=C(Cl)C(=O)N(c2cc(C(C)(C)C#N)ccn2)C1O (stereo not drawn) [AF100] | 3 | 4 | 5 | 5 | 5 | 3 | 5 | 5 | 5 | 5 | 5 | 4 |
| CCOC(=O)c1cnc(N2C(=O)C(Cl)=C(C)C2O)cc1Cl (stereo not drawn) [AF101] | 1 | 0 | 2 | 0 | 0 | 0 | 5 | 2 | 5 | 3 | 5 | 1 |
| CC1=C(Cl)C(=O)N(c2ccc(C(C)(C)C#N)cn2)C1O (stereo not drawn) [AF102] | 5 | 3 | 5 | 5 | 4 | 3 | 5 | 5 | 5 | 5 | 5 | 5 |
| CC1=C(Cl)C(=O)N(c2cc(C(C)C)c(C(=O)NC(C)(C)C)cn2)C1O (stereo not drawn) [AF103] | 5 | 4 | 5 | 4 | 4 | 3 | 5 | 4 | 5 | 5 | 5 | 3 |
| CC1=C(Cl)C(=O)N(c2cc(C)c(-c3ccsc3)cn2)C1O (stereo not drawn) [AF104] | 1 | 0 | 5 | 1 | 1 | 0 | 4 | 2 | 5 | 5 | 5 | 0 |
| CC1=C(Cl)C(=O)N(c2cc(C(F)(F)F)c(-c3nn(C)c4ccccc34)cn2)C1O (stereo not drawn) [AF105] | 0 | 0 | 0 | 0 | 0 | 0 | 5 | 3 | 5 | 2 | 4 | 0 |
